Source: patent publication US20200187499A1, “SUBSTITUTED BENZYL-4-AMINOPICOLINIC ESTERS AND PYRIMIDINO-4-CARBOXYLIC ESTERS, METHODS FOR THE PRODUCTION THEREOF, AND USE THEREOF AS HERBICIDES AND PLANT GROWTH REGULATORS” (Bayer CropScience Aktiengesellschaft, priority 2017, published 2020)

Legend:
Assay type in all cases: in vivo
ABUTH [1] = assay: Pre-emergence herbicidal action; conditions: Table 3, pre-emergence (PE), 320 g/ha, scored after 3 weeks
Description: (§1) Seeds of monocotyledonous and dicotyledonous weed plants and crop plants are laid out in sandy loam soil in wood-fiber pots and covered with soil. The compounds of the invention, formulated in the form of wettable powders (WP) or as emulsion concentrates (EC), are then applied to the surface of the covering soil in the form of an aqueous suspension or emulsion at a water application rate equating to 600 to 800 I/ha, with addition of 0.2% wetting agent. After the treatment, the pots are placed in a greenhouse and kept under good growth conditions for the trial plants. The damage to the test plants is scored visually after a test period of 3 weeks by comparison with untreated controls (herbicidal activity in percent (%): 100% activity=the plants have died, 0% activity=like control plants).
(§2) At the same time, inventive compounds leave Gramineae crops such as barley, wheat, rye, millet/sorghum, corn or rice virtually undamaged when applied pre-emergence, even at high active ingredient dosages. In addition, some substances are also harmless to dicotyledonous crops such as soya, cotton, oilseed rape, sugar beet or potatoes. […] The tables below illustrate, in an exemplary manner, the pre-emergence herbicidal action of the compounds according to the invention, the herbicidal activity being stated in percent.

ALOMY = assay: Pre-emergence herbicidal action; conditions: Table 3, pre-emergence (PE), 320 g/ha, scored after 3 weeks
Description: as §1, §2

AMARE [2] = assay: Pre-emergence herbicidal action; conditions: 320 g/ha, scored after 3 weeks
Description: as §1, §2

ECHCG [3] = assay: Pre-emergence herbicidal action; conditions: 320 g/ha, scored after 3 weeks
Description: as §1, §2

SETVI [4] = assay: Pre-emergence herbicidal action; conditions: Table 3, pre-emergence (PE), 320 g/ha, scored after 3 weeks
Description: as §1, §2

ABUTH [5] = assay: Post-emergence herbicidal action; conditions: 320 g/ha, assessed after about 3 weeks
Protocol: (§3) Seeds of monocotyledonous and dicotyledonous weed and crop plants are laid out in sandy loam soil in wood-fiber pots, covered with soil and cultivated in a greenhouse under good growth conditions. 2 to 3 weeks after sowing, the test plants are treated at the one-leaf stage. The compounds of the invention, formulated in the form of wettable powders (WP) or as emulsion concentrates (EC), are then sprayed onto the green parts of the plants in the form of an aqueous suspension or emulsion at a water application rate equating to 600 to 800 l/ha, with addition of 0.2% wetting agent. After the test plants have been left to stand in the greenhouse under optimal growth conditions for about 3 weeks, the action of the preparations is assessed visually in comparison to untreated controls (herbicidal action in percent (%): 100% activity=the plants have died, 0% activity=like control plants). […] At the same time, inventive compounds leave Gramineae crops such as barley, wheat, rye, millet/sorghum, corn or rice virtually undamaged when applied post-emergence, even at high active ingredient dosages. In addition, some substances are also harmless to dicotyledonous crops such as soya, cotton, oilseed rape, sugar beet or potatoes. Some of the compounds according to the invention have high selectivity and are therefore suitable for controlling unwanted vegetation in agricultural crops by the post-emergence method. The tables below illustrate, in an exemplary manner, the post-emergence herbicidal action of the compounds according to the invention, the herbicidal activity being stated in percent.

AMARE [6] = assay: Post-emergence herbicidal action; conditions: 320 g/ha, assessed after about 3 weeks
Protocol: as §3

SETVI [7] = assay: Post-emergence herbicidal action; conditions: 320 g/ha, assessed after about 3 weeks
Protocol: as §3

STEME = assay: Post-emergence herbicidal action; conditions: 320 g/ha, assessed after about 3 weeks
Protocol: as §3

ECHCG [8] = assay: Post-emergence herbicidal action; conditions: 320 g/ha, assessed after about 3 weeks
Protocol: as §3

PHBPU = assay: Post-emergence herbicidal action; conditions: Table 5, post-emergence (PO), 320 g/ha, assessed after about 3 weeks
Protocol: as §3

POLCO = assay: Post-emergence herbicidal action; conditions: Table 5, post-emergence (PO), 320 g/ha, assessed after about 3 weeks
Protocol: as §3

VIOTR = assay: Post-emergence herbicidal action; conditions: Table 5, post-emergence (PO), 320 g/ha, assessed after about 3 weeks
Protocol: as §3

Nc1c(F)c(-c2ccc3ccoc3c2)nc(C(=O)OCc2ccc(Cl)cc2)c1Cl [Example I-15]
Herbicidal action against ABUTH (ABUTH [1]): 90% | Herbicidal action against ALOMY (ALOMY): 0% | Herbicidal action against AMARE (AMARE [2]; Table 3, pre-emergence (PE)): 100% | Herbicidal action against ECHCG (ECHCG [3]; Table 3, pre-emergence (PE)): 30% | Herbicidal action against SETVI (SETVI [4]): 0% | Herbicidal action against ABUTH (ABUTH [5]; Table 6, post-emergence (PO)): 100% | Herbicidal action against AMARE (AMARE [6]; Table 6, post-emergence (PO)): 100% | Herbicidal action against SETVI (SETVI [7]; Table 6, post-emergence (PO)): 80% | Herbicidal action against STEME (STEME; Table 6, post-emergence (PO)): 80%

Nc1cc(-c2ccc3ccsc3c2)nc(C(=O)OCc2c(F)c(F)c(F)c(F)c2F)c1Cl [Example I-25]
Herbicidal action against ABUTH (ABUTH [1]): 0% | Herbicidal action against ALOMY (ALOMY): 60% | Herbicidal action against AMARE (AMARE [2]; Table 3, pre-emergence (PE)): 100% | Herbicidal action against ECHCG (ECHCG [3]; Table 3, pre-emergence (PE)): 70% | Herbicidal action against SETVI (SETVI [4]): 80% | Herbicidal action against ABUTH (ABUTH [5]; Table 6, post-emergence (PO)): 90% | Herbicidal action against AMARE (AMARE [6]; Table 6, post-emergence (PO)): 100% | Herbicidal action against SETVI (SETVI [7]; Table 6, post-emergence (PO)): 100% | Herbicidal action against STEME (STEME; Table 6, post-emergence (PO)): 100%

Nc1cc(-c2ccc3ccoc3c2)nc(C(=O)OCc2ccc(Cl)cc2)c1Cl [Example I-30]
Herbicidal action against ABUTH (ABUTH [1]): 20% | Herbicidal action against ALOMY (ALOMY): 40% | Herbicidal action against AMARE (AMARE [2]; Table 3, pre-emergence (PE)): 100% | Herbicidal action against ECHCG (ECHCG [3]; Table 3, pre-emergence (PE)): 100% | Herbicidal action against SETVI (SETVI [4]): 90% | Herbicidal action against ABUTH (ABUTH [5]; Table 6, post-emergence (PO)): 90% | Herbicidal action against AMARE (AMARE [6]; Table 6, post-emergence (PO)): 100% | Herbicidal action against SETVI (SETVI [7]; Table 6, post-emergence (PO)): 90% | Herbicidal action against STEME (STEME; Table 6, post-emergence (PO)): 100%

Nc1c(F)c(-c2ccc3sccc3c2)nc(C(=O)OCc2ccc(Cl)cc2)c1Cl [Example I-65]
Herbicidal action against ABUTH (ABUTH [5]; Table 5, post-emergence (PO)): 80% | Herbicidal action against AMARE (AMARE [6]; Table 5, post-emergence (PO)): 100% | Herbicidal action against ECHCG (ECHCG [8]; Table 5, post-emergence (PO)): 80% | Herbicidal action against PHBPU (PHBPU): 0% | Herbicidal action against POLCO (POLCO): 100% | Herbicidal action against SETVI (SETVI [7]; Table 5, post-emergence (PO)): 90% | Herbicidal action against STEME (STEME; Table 5, post-emergence (PO)): 80% | Herbicidal action against VIOTR (VIOTR): 10%

Nc1cc(-c2ccc3ccoc3c2)nc(C(=O)OCc2c(F)c(F)c(F)c(F)c2F)c1Cl [Example I-54]
Herbicidal action against AMARE (AMARE [2]; Table 4, pre-emergence (PE)): 80% | Herbicidal action against ECHCG (ECHCG [3]; Table 4, pre-emergence (PE)): 0% | Herbicidal action against ABUTH (ABUTH [5]; Table 7, post-emergence (PO)): 80% | Herbicidal action against ABUTH (ABUTH [5]; Table 8, post-emergence (PO)): 80% | Herbicidal action against AMARE (AMARE [6]; Table 7, post-emergence (PO)): 100% | Herbicidal action against AMARE (AMARE [6]; Table 8, post-emergence (PO)): 100% | Herbicidal action against ECHCG (ECHCG [8]; Table 7, post-emergence (PO)): 80% | Herbicidal action against ECHCG (ECHCG [8]; Table 8, post-emergence (PO)): 80% | Herbicidal action against SETVI (SETVI [7]; Table 7, post-emergence (PO)): 80% | Herbicidal action against SETVI (SETVI [7]; Table 8, post-emergence (PO)): 80%

Nc1c(F)c(-c2ccc3occc3c2)nc(C(=O)OCc2c(F)cc(F)cc2F)c1Cl [Example I-52]
Herbicidal action against ABUTH (ABUTH [1]): 20% | Herbicidal action against ALOMY (ALOMY): 80% | Herbicidal action against AMARE (AMARE [2]; Table 3, pre-emergence (PE)): 80% | Herbicidal action against ECHCG (ECHCG [3]; Table 3, pre-emergence (PE)): 30% | Herbicidal action against SETVI (SETVI [4]): 40% | Herbicidal action against ABUTH (ABUTH [5]; Table 6, post-emergence (PO)): 80% | Herbicidal action against AMARE (AMARE [6]; Table 6, post-emergence (PO)): 90% | Herbicidal action against SETVI (SETVI [7]; Table 6, post-emergence (PO)): 20% | Herbicidal action against STEME (STEME; Table 6, post-emergence (PO)): 80%

Nc1cc(-c2ccc3ccsc3c2)nc(C(=O)OCc2cccc(Cl)c2)c1Cl [Example I-50]
Herbicidal action against AMARE (AMARE [2]; Table 4, pre-emergence (PE)): 80% | Herbicidal action against ECHCG (ECHCG [3]; Table 4, pre-emergence (PE)): 70% | Herbicidal action against ABUTH (ABUTH [5]; Table 7, post-emergence (PO)): 90% | Herbicidal action against ABUTH (ABUTH [5]; Table 8, post-emergence (PO)): 90% | Herbicidal action against AMARE (AMARE [6]; Table 7, post-emergence (PO)): 100% | Herbicidal action against AMARE (AMARE [6]; Table 8, post-emergence (PO)): 100% | Herbicidal action against ECHCG (ECHCG [8]; Table 7, post-emergence (PO)): 90% | Herbicidal action against ECHCG (ECHCG [8]; Table 8, post-emergence (PO)): 90% | Herbicidal action against SETVI (SETVI [7]; Table 7, post-emergence (PO)): 40% | Herbicidal action against SETVI (SETVI [7]; Table 8, post-emergence (PO)): 40%

Nc1cc(-c2ccc3ccsc3c2)nc(C(=O)OCc2c(F)cc(F)cc2F)c1Cl [Example I-32]
Herbicidal action against ABUTH (ABUTH [1]): 30% | Herbicidal action against ALOMY (ALOMY): 70% | Herbicidal action against AMARE (AMARE [2]; Table 3, pre-emergence (PE)): 100% | Herbicidal action against ECHCG (ECHCG [3]; Table 3, pre-emergence (PE)): 80% | Herbicidal action against SETVI (SETVI [4]): 80% | Herbicidal action against ABUTH (ABUTH [5]; Table 9, post-emergence (PO)): 90% | Herbicidal action against AMARE (AMARE [6]; Table 9, post-emergence (PO)): 100%
